Reference: PubChem BioAssay (NCI)
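Results reflect a 48-hour exposure of cells in 96-well plates to compound at five concentrations. Definition used: TGI = concentration required for complete inhibition of growth.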

Legend:
Assay in all cases: DTP human tumour cell line panel, 48 h
[1] = tested on: HS 578T breast
[2] = tested on: CAKI-1 renal
[3] = tested on: MALME-3M melanoma
[4] = tested on: EKVX NSCLC
[5] = tested on: SF-539 CNS
[6] = tested on: SK-OV-3 ovarian
[7] = tested on: UACC-257 melanoma
[8] = tested on: OVCAR-8 ovarian
[9] = tested on: MDA-MB-231 breast
[10] = tested on: SNB-19 CNS
[11] = tested on: TK-10 renal
[12] = tested on: M14 melanoma
[13] = tested on: SW-620 colon
[14] = tested on: UO-31 renal
[15] = tested on: OVCAR-3 ovarian
[16] = tested on: HOP-62 NSCLC
[17] = tested on: ACHN renal

Compound COc1cccc(CCCNC(=O)Cc2ccccc2CO)c1 has a TGI [1] greater than 100 µM, a TGI [2] greater than 100 µM and a TGI [3] greater than 100 µM. For the same compound, the TGI [4] was greater than 100 µM, the TGI [5] was greater than 100 µM and the TGI [6] was greater than 100 µM. For the same compound, the TGI [7] was greater than 100 µM, the TGI [8] was greater than 100 µM and the TGI [9] was greater than 100 µM. For the same compound, the TGI [10] was greater than 100 µM, the TGI [11] was greater than 100 µM and the TGI [12] was greater than 100 µM. The TGI [13] was greater than 100 µM, the TGI [14] was greater than 100 µM and the TGI [15] was greater than 100 µM. For the same compound, the TGI [16] was greater than 100 µM and the TGI [17] was greater than 100 µM.

COC(=O)c1ccccc1C1CN=NC12Cc1c(C)ccc(C)c1C2=O (stereo not given) showed a TGI [1] greater than 100 µM, a TGI [2] greater than 100 µM and a TGI [3] greater than 100 µM. It also gave a TGI [4] greater than 100 µM, a TGI [5] greater than 100 µM and a TGI [6] greater than 100 µM. For the same compound, the TGI [7] was greater than 100 µM, the TGI [8] was greater than 100 µM and the TGI [9] was greater than 100 µM. It also gave a TGI [10] greater than 100 µM, a TGI [11] greater than 100 µM and a TGI [12] greater than 100 µM. It also gave a TGI [13] greater than 100 µM, a TGI [14] greater than 100 µM and a TGI [15] greater than 100 µM. For the same compound, the TGI [16] was greater than 100 µM and the TGI [17] was greater than 100 µM.

Cc1cc(=O)n2nc(CSc3nnc(Sc4cc(O)ccc4O)s3)sc2n1 showed a TGI [1] greater than 100 µM, a TGI [2] greater than 100 µM and a TGI [3] greater than 100 µM. It also gave a TGI [4] greater than 100 µM, a TGI [5] greater than 100 µM and a TGI [6] greater than 100 µM. The TGI [7] was greater than 100 µM, the TGI [8] was greater than 100 µM and the TGI [9] was 97.4 µM. For the same compound, the TGI [10] was greater than 100 µM, the TGI [11] was greater than 100 µM and the TGI [12] was greater than 100 µM. The TGI [13] was 44.5 µM, the TGI [14] was greater than 100 µM and the TGI [15] was greater than 100 µM. The TGI [16] was greater than 100 µM and the TGI [17] was greater than 100 µM.

In the case of Cc1ccc(NCCN(C)C)c2c(=O)c3cc(O)ccc3sc12, the TGI [1] is reported as 3.87 µM, the TGI [2] is reported as 11.6 µM and the TGI [3] is reported as 11.2 µM. The TGI [4] was 27.6 µM, the TGI [5] was 10.4 µM and the TGI [6] was 9.84 µM. It also gave a TGI [7] of 20.7 µM, a TGI [8] of 6.84 µM and a TGI [9] of 4.6 µM. It also gave a TGI [10] of 16.1 µM, a TGI [11] of 33.9 µM and a TGI [12] of 10.4 µM. It also gave a TGI [13] of 5.76 µM, a TGI [14] of 17.4 µM and a TGI [15] of 18.6 µM. It also gave a TGI [16] of 6.21 µM and a TGI [17] of 7.31 µM.

C=CCOC(=O)N1c2ccc(O)cc2[C@@]23O[C@@]24[C@@H]1C#C/C=C\C#C[C@]3(O)C(=O)C[C@@H]4C gave a TGI [1] greater than 100 µM, a TGI [2] greater than 100 µM and a TGI [3] greater than 100 µM. It also gave a TGI [4] greater than 100 µM, a TGI [5] greater than 100 µM and a TGI [7] greater than 100 µM. For the same compound, the TGI [8] was greater than 100 µM, the TGI [9] was greater than 100 µM and the TGI [10] was greater than 100 µM. The TGI [11] was greater than 100 µM, the TGI [12] was greater than 100 µM and the TGI [13] was greater than 100 µM. It also gave a TGI [14] greater than 100 µM, a TGI [16] greater than 100 µM and a TGI [17] greater than 100 µM.

Work on CC(NNC(=O)c1ccncc1)c1ccc(Cl)cc1Cl (stereo not given) yielded a TGI [1] greater than 100 µM, a TGI [2] greater than 100 µM and a TGI [3] greater than 100 µM. For the same compound, the TGI [4] was greater than 100 µM, the TGI [5] was greater than 100 µM and the TGI [6] was greater than 100 µM. It also gave a TGI [7] greater than 100 µM, a TGI [8] greater than 100 µM and a TGI [9] greater than 100 µM. It also gave a TGI [10] greater than 100 µM, a TGI [11] greater than 100 µM and a TGI [12] greater than 100 µM. The TGI [13] was greater than 100 µM, the TGI [14] was greater than 100 µM and the TGI [15] was greater than 100 µM. The TGI [16] was greater than 100 µM and the TGI [17] was greater than 100 µM.

Work on C/C(Nc1ccc(Cl)cc1)=C1/CCOC1=O yielded a TGI [1] greater than 100 µM, a TGI [2] greater than 100 µM and a TGI [3] greater than 100 µM. It also gave a TGI [4] greater than 100 µM, a TGI [5] greater than 100 µM and a TGI [6] greater than 100 µM. It also gave a TGI [7] greater than 100 µM, a TGI [8] greater than 100 µM and a TGI [9] greater than 100 µM. The TGI [10] was greater than 100 µM, the TGI [11] was greater than 100 µM and the TGI [12] was greater than 100 µM. For the same compound, the TGI [13] was greater than 100 µM, the TGI [14] was greater than 100 µM and the TGI [15] was greater than 100 µM. For the same compound, the TGI [16] was greater than 100 µM and the TGI [17] was greater than 100 µM.

Compound Cc1cc2occ(S(=O)(=O)NC(=O)Nc3ccc(Cl)cc3)c(=O)c2c(=O)o1 has a TGI [1] greater than 100 µM, a TGI [2] greater than 100 µM and a TGI [3] greater than 100 µM. It also gave a TGI [4] greater than 100 µM, a TGI [5] greater than 100 µM and a TGI [6] greater than 100 µM. It also gave a TGI [7] greater than 100 µM, a TGI [8] greater than 100 µM and a TGI [9] greater than 100 µM. For the same compound, the TGI [10] was greater than 100 µM, the TGI [11] was greater than 100 µM and the TGI [12] was greater than 100 µM. For the same compound, the TGI [13] was greater than 100 µM, the TGI [14] was greater than 100 µM and the TGI [15] was greater than 100 µM. The TGI [16] was greater than 100 µM and the TGI [17] was greater than 100 µM.

For CCCCCCCCCCCCC1N=C(N)NC2(CCCO2)C1C(=O)OC (stereo not given), the TGI [1] was 8.89 µM, the TGI [2] was 30.6 µM and the TGI [3] was 38 µM. The TGI [4] was 36.6 µM, the TGI [5] was 15.8 µM and the TGI [6] was 23.8 µM. It also gave a TGI [7] of 19 µM, a TGI [8] of 23.3 µM and a TGI [9] of 13.3 µM. It also gave a TGI [10] of 9.92 µM, a TGI [11] of 15.5 µM and a TGI [12] of 16.6 µM. It also gave a TGI [13] of 7.65 µM, a TGI [14] of 32.2 µM and a TGI [15] of 13.2 µM. The TGI [16] was 23.8 µM and the TGI [17] was 25.2 µM.

C#CCOC(=O)C(=[N+]=[N-])C(=O)CC(C)C showed a TGI [1] greater than 10 µM, a TGI [2] greater than 10 µM and a TGI [3] greater than 10 µM. It also gave a TGI [4] greater than 10 µM, a TGI [5] greater than 10 µM and a TGI [6] greater than 10 µM. The TGI [7] was greater than 10 µM, the TGI [8] was greater than 10 µM and the TGI [9] was greater than 10 µM. It also gave a TGI [10] greater than 10 µM, a TGI [11] greater than 10 µM and a TGI [12] greater than 10 µM. The TGI [13] was greater than 10 µM, the TGI [14] was greater than 10 µM and the TGI [15] was greater than 10 µM. The TGI [16] was greater than 10 µM and the TGI [17] was greater than 10 µM.

N#CC(NNC(=O)c1ccccc1O)c1c(O)ccc2ccccc12 (stereo not given) showed a TGI [1] greater than 86.2 µM, a TGI [2] of 21 µM and a TGI [3] of 27.6 µM. For the same compound, the TGI [4] was 51.7 µM, the TGI [5] was 23.1 µM and the TGI [6] was 40.7 µM. It also gave a TGI [7] of 24.9 µM, a TGI [8] of 25.9 µM and a TGI [9] of 27.7 µM. The TGI [10] was greater than 100 µM, the TGI [11] was 36.5 µM and the TGI [12] was 30 µM. It also gave a TGI [13] greater than 60.9 µM, a TGI [14] of 11.4 µM and a TGI [15] of 23.8 µM. The TGI [16] was 29.5 µM and the TGI [17] was 22.2 µM.

For CC1CCCN1CCCOC(=O)c1ccc(OC2C=CCCC2)cc1 (stereo not given), the TGI [1] was 71.8 µM, the TGI [3] was 34.4 µM and the TGI [4] was greater than 100 µM. It also gave a TGI [5] of 74.9 µM, a TGI [6] greater than 100 µM and a TGI [7] greater than 100 µM. For the same compound, the TGI [8] was greater than 100 µM, the TGI [9] was 47.8 µM and the TGI [10] was greater than 100 µM. It also gave a TGI [11] of 88.8 µM, a TGI [12] of 31.6 µM and a TGI [13] of 46.4 µM. The TGI [14] was greater than 100 µM, the TGI [15] was greater than 100 µM and the TGI [16] was 42.1 µM. The TGI [17] was greater than 100 µM.

In the case of COC(=O)[C@@H]1COC(=O)N1, the TGI [1] is reported as greater than 100 µM, the TGI [2] is reported as greater than 100 µM and the TGI [3] is reported as greater than 100 µM. It also gave a TGI [4] greater than 100 µM, a TGI [5] greater than 100 µM and a TGI [6] greater than 100 µM. It also gave a TGI [7] greater than 100 µM, a TGI [8] greater than 100 µM and a TGI [9] greater than 100 µM. The TGI [10] was greater than 100 µM, the TGI [11] was greater than 100 µM and the TGI [12] was greater than 100 µM. For the same compound, the TGI [13] was greater than 100 µM, the TGI [14] was greater than 100 µM and the TGI [15] was greater than 100 µM. It also gave a TGI [16] greater than 100 µM and a TGI [17] greater than 100 µM.

With CC(C)(CN1CCCCC1)C(=O)CC(SCCS(=O)(=O)O)c1ccc(Cl)cc1 (stereo not given) the TGI [1] was 7.5 µM, the TGI [2] was 18.3 µM and the TGI [3] was 24.3 µM. The TGI [4] was 11.8 µM, the TGI [5] was 4.66 µM and the TGI [6] was 28.8 µM. For the same compound, the TGI [7] was 20.5 µM, the TGI [8] was 11.1 µM and the TGI [9] was 6.61 µM. For the same compound, the TGI [10] was 28.9 µM, the TGI [11] was 18.9 µM and the TGI [12] was 9.19 µM. For the same compound, the TGI [13] was 9.07 µM, the TGI [14] was 15.1 µM and the TGI [15] was 17.9 µM. The TGI [16] was 25 µM and the TGI [17] was 17.1 µM.
